Experimental findings from patent US20250270222A1, “AP2 ASSOCIATED KINASE 1 INHIBITORS AND USES THEREOF” (Satellos Bioscience Inc., priority 2023, published 2025) are described below.

Experiment [1] deals with AAK1 (amino acids T27-A365) (Homo sapiens (Human), UniProt Q2M2I8). The experiment is described as follows: AAK1 pSENs assay. The format is biochemical. The settings on record: ratio of AAK1 pSENs activity to GAK pSENs activity. Here is the method: (§1) The recombinant proteins were independently expressed in Esherichia coli BL21(DE3) cells cultured in Luria-Bertani (LB) medium until OD600 reached 0.6-0.8, then cooled to 15° C., and supplemented with 0.5 mM isopropyl 1-thio-D-galactopyranoside (IPTG) induce protein expression 16 h. Cells were harvested and resuspended in lysis buffer (50 mM HEPES pH 7.5, 500 mM NaCl, 5 mM imidazole, 5% glycerol, 0.5 mM Tris (2-carboxyethyl) phosphine (TCEP), cOmplete Protease Inhibitor Tablet (Roche)) and lysed by microfluidics high pressure homogenizer (UH-06, Union-Biotech). Proteins were purified using Ni-Affinity chromatography (His FF column, Bestchrom) and eluted stepwise in binding buffer with 20-300 mM imidazole. Removal of the hexahistidine tag was performed at 4° C. overnight using recombinant TEV protease and reacted with BirA to obtain the corresponding biotinylated-AAK1. BIKE or GAK proteins. Further separated in the reverse Strep column (Strep-Tactin® XT, IBA). The Biotin elution sample was collected containing untagged biotinylated protein was then purified by Ion-exchange chromatography (Mono Q 10/100 GL, Cytiva) and Size-exclusion chromatography (HiLoad 16/600 Superdex 200 pg, Cytiva). The pure protein was stored in a storage buffer 50 mM HEPES (pH 7.5), 300 mM NaCl, 5% glycerol at −80° C. Protein were characterized by SDS-PAGE. LC-MS and aSEC.
This example describes one illustrative method for determining the IC50 of the compounds of the present invention against AAK1 (amino acids T27-A365). AAK1 protein was dissolved at 20 nM in 1× enzyme solution (50 mM HEPES pH7.5, 10 mM MgCl2, 1 mM DTT, 1% glycerol, 0.5 mM EGTA, 0.01% Briji35, 0.02% BSA) and 12.5 ul was incubated with 250 nl DMSO or 250 nl compound in DMSO at 25° C. for 15 min. The reaction was started by addition of 12.5 ul of 30 uM AQT0759 (Assayquant, CSKS-AQT0759B) and 70 uM ATP which were diluted in 1× substrate dilution buffer (50 mM HEPES pH7.5, 10 mM MgCl2, 1 mM DTT, 1% glycerol, 0.5 mM EGTA, 0.01% Briji35).

Experiment [2] concerns the target GAK (amino acids Q25-N335) (Homo sapiens (Human), UniProt O14976). The experiment is described as follows: GAK pSENs assay. In kind it is biochemical. As for the experimental part: as §1
This example describes one illustrative method for determining the IC50 of the compounds of the present invention against GAK (amino acids Q25-N335).

Chain of AAK1 (amino acids T27-A365) (Q2M2I8 27-365): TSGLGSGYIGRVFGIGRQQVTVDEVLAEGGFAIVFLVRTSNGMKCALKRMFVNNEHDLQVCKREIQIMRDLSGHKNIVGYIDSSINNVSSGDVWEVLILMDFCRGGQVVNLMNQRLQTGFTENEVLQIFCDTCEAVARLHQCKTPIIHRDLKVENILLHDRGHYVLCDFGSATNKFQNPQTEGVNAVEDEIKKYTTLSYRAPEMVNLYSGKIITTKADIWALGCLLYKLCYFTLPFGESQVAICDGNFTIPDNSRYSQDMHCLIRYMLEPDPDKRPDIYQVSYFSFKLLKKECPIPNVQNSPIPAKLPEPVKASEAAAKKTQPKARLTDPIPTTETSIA
Chain of GAK (amino acids Q25-N335) (O14976 25-335): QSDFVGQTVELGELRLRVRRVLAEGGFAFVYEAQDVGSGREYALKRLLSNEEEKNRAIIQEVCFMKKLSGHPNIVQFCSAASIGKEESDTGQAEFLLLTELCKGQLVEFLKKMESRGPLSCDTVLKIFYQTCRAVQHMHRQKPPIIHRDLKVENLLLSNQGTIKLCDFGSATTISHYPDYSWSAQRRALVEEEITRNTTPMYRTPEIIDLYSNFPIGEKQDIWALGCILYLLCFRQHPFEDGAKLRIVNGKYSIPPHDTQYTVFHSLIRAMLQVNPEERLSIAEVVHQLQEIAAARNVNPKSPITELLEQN

For `O=C1C[C@H](OC(=O)N2CCN(c3ccn4ncc(-c5cccnc5OC5COC5)c4n3)CC2)CN1` [Compound I-25, [(3S)-5-Oxopyrrolidin-3-yl]4-[3-[2-(oxetan-3-yloxy)-3-pyridyl]pyrazolo[1,5-a]pyrimidin-5-yl]piperazine-1-carboxylate], in experiment [1], the “AAK1:GAK pSENs Selectivity” value is “A (A: ≤0.015)”. Besides, the 50% inhibitory concentration (IC50) in experiment [2] was > 1500 nM.
For `CC(C)Oc1ncccc1-c1cnn2ccc(N3CCN(C(=O)O[C@@H]4CNC(=O)C4)CC3)nc12` [Compound I-26, [(3S)-5-Oxopyrrolidin-3-yl]-4-[3-(2-isopropoxy-3-pyridyl)pyrazolo[1,5-a]pyrimidin-5-yl]piperazine-1-carboxylate] the same measures were “A (A: ≤0.015)” and > 1500 nM.
`O=C(O[C@H]1CO[C@H]2OCC[C@H]21)N1CCN(c2ccn3ncc(-c4cccnc4OC4CC4)c3n2)CC1` [Compound I-27, [(3aS,4R,6aR)-2,3,3a, 4,5,6a-hexahydrofuro[2,3-b]furan-4-yl]-4-[3-[2-(cyclopropoxy)-3-pyridyl]pyrazolo[1,5-a]pyrimidin-5-yl]piperazine-1-carboxylate]: the “AAK1:GAK pSENs Selectivity” value in experiment [1] is “A (A: ≤0.015)”. The IC50 in experiment [2] is > 1500 nM.
`CC(C)(C)OC(=O)N1CCC(N2C[C@@H](OC(=O)N3CCN(c4ccn5ncc(-c6cccnc6OC6CC6)c5n4)CC3)CC2=O)CC1` [Compound I-30, [(3S)-1-(1-tert-Butoxycarbonyl-4-piperidyl)-5-oxo-pyrrolidin-3-yl]4-[3-[2-(cyclopropoxy)-3-pyridyl]pyrazolo[1,5-a]pyrimidin-5-yl]piperazine-1-carboxylate]: the “AAK1:GAK pSENs Selectivity” value in experiment [1] is “A (A: ≤0.015)”. The concentration for half-maximal inhibition (IC50) in experiment [2] was > 1500 nM.
With `O=C(O[C@H]1CC(=O)N(C2CCNCC2)C1)N1CCN(c2ccn3ncc(-c4cccnc4OC4CC4)c3n2)CC1` [Compound I-32, [(3S)-5-Oxo-1-(4-piperidyl)pyrrolidin-3-yl]4-[3-[2-(cyclopropoxy)-3-pyridyl]pyrazolo[1,5-a]pyrimidin-5-yl]piperazine-1-carboxylate], the “AAK1:GAK pSENs Selectivity” value in experiment [1] is listed as “A (A: ≤0.015)”. The IC50 in experiment [2] was > 1500 nM.
For `CN1C[C@@H](OC(=O)N2CCN(c3ccn4ncc(-c5cccnc5OC5CC5)c4n3)CC2)CC1=O` [Compound I-34] the same measures were “A (A: ≤0.015)” and > 1500 nM.
For `CNCCN1C[C@@H](OC(=O)N2CCN(c3ccn4ncc(-c5cccnc5OC5CC5)c4n3)CC2)CC1=O` [Compound I-36, (S)-1-(2-(methylamino)ethyl)-5-(oxopyrrolidin-3-yl)-4-(3-(2-cyclopropoxypyridin-3-yl)pyrazolo[1,5-a]pyrimidin-5-yl)piperazine-1-carboxylate] the same measures were “A (A: ≤0.015)” and > 1500 nM.
For `O=C1C[C@H](OC(=O)N2CCN(c3ccn4ncc(-c5cccnc5OC5CC5)c4n3)CC2)CN1CCO` [Compound I-38, [(3S)-1-(2-Hydroxyethyl)-5-oxo-pyrrolidin-3-yl]-4-[3-[2-(cyclopropoxy)-3-pyridyl]pyrazolo[1,5-a]pyrimidin-5-yl]piperazine-1-carboxylate], the “AAK1:GAK pSENs Selectivity” value in experiment [1] is recorded as “A (A: ≤0.015)”. Also, the IC50 in experiment [2] was > 1500 nM.
For `C[C@@H]1CN(c2ccn3ncc(-c4cccnc4OC4CC4)c3n2)CCN1C(=O)O[C@@H]1CNC(=O)C1` [Compound I-39, [(3S)-5-oxopyrrolidin-3-yl]-(2R)-4-[3-[2-(cyclopropoxy)-3-pyridyl]pyrazolo[1,5-a]pyrimidin-5-yl]-2-methyl-piperazine-1-carboxylate] the same measures were “A (A: ≤0.015)” and > 1500 nM.
For `CC(C)(C)OC(=O)N1CC(Oc2ncccc2-c2cnn3ccc(N4CCN(C(=O)O[C@@H]5CNC(=O)C5)CC4)nc23)C1` [Compound I-42, [(3S)-5-Oxopyrrolidin-3-yl]4-[3-[2-(1-tert-butoxycarbonylazetidin-3-yl)oxy-3-pyridyl]pyrazolo[1,5-a]pyrimidin-5-yl]piperazine-1-carboxylate] the same measures were “A (A: ≤0.015)” and > 1500 nM.
For `CN1CC[C@@](C)(OC(=O)N2CCN(c3ccn4ncc(-c5cccnc5OC5CC5)c4n3)CC2)C1` [Compound I-50, [(3R)-1,3-dimethylpyrrolidin-3-yl]-4-[3-[2-(cyclopropoxy)-3-pyridyl]pyrazolo[1,5-a]pyrimidin-5-yl]piperazine-1-carboxylate] the same measures were “A (A: ≤0.015)” and > 1500 nM.
As to `C[C@@]1(OC(=O)N2CCN(c3ccn4ncc(-c5cccnc5OC5CC5)c4n3)CC2)CCN(CCO)C1` [Compound I-52, [(3R)-1-(2-hydroxyethyl)-3-methyl-pyrrolidin-3-yl]-4-[3-[2-(cyclopropoxy)-3-pyridyl]pyrazolo[1,5-a]pyrimidin-5-yl]piperazine-1-carboxylate], the “AAK1:GAK pSENs Selectivity” value in experiment [1] is “A (A: ≤0.015)”. Besides, the half-maximal inhibitory concentration (IC50) in experiment [2] was > 1500 nM.
For `COC(=O)N1CC(Oc2ncccc2-c2cnn3ccc(N4CCN(C(=O)O[C@@H]5CNC(=O)C5)CC4)nc23)C1` [Compound I-58, [(3S)-5-oxopyrrolidin-3-yl]-4-[3-[2-(1-methoxycarbonylazetidin-3-yl)oxy-3-pyridyl]pyrazolo[1,5-a]pyrimidin-5-yl]piperazine-1-carboxylate] the same measures were “A (A: ≤0.015)” and > 1500 nM.
For `CC(=O)N1CC(Oc2ncccc2-c2cnn3ccc(N4CCN(C(=O)O[C@@H]5CNC(=O)C5)CC4)nc23)C1` [Compound I-59, (S)-5-oxopyrrolidin-3-yl 4-(3-(2-((1-acetylazetidin-3-yl)oxy)pyridin-3-yl)pyrazolo[1,5-a]pyrimidin-5-yl)piperazine-1-carboxylate] the same measures were “A (A: ≤0.015)” and > 1500 nM.
For `CN(CCNc1ccn2ncc(-c3cccnc3OC3CC3)c2n1)C(=O)O[C@@H]1CNC(=O)C1` [Compound I-60] the same measures were “C (C: 0.076-0.15)” and > 1500 nM.
Take `CN(CCNc1ccn2ncc(-c3cccnc3OC3CN(C(=O)OC(C)(C)C)C3)c2n1)C(=O)OC(C)(C)C` [Compound I-62, Tert-butyl 3-[[3-[5-[2-[tert-butoxycarbonyl(methyl)amino]ethylamino]pyrazolo[1,5-a]pyrimidin-3-yl]-2-pyridyl]oxy]azetidine-1-carboxylate]: in experiment [1], the “AAK1:GAK pSENs Selectivity” value was “A (A: ≤0.015)”. The half-maximal inhibitory concentration (IC50) in experiment [2] was > 1500 nM.
For `CC(=O)N1CC(Oc2ncccc2-c2cnn3ccc(NCCN(C)C(=O)OC(C)(C)C)nc23)C1` [Compound I-63, Tert-butyl (2-((3-(2-((1-acetylazetidin-3-yl)oxy)pyridin-3-yl)pyrazolo[1,5-a]pyrimidin-5-yl)amino)ethyl)(methyl)carbamate] the same measures were “A (A: ≤0.015)” and > 1500 nM.
For `COC(=O)N1CC(Oc2ncccc2-c2cnn3ccc(NCCN(C)C(=O)OC(C)(C)C)nc23)C1` [Compound I-64] the same measures were “A (A: ≤0.015)” and > 1500 nM.
For `COc1ncccc1-c1cnn2ccc(N3CCN(C(=O)O[C@H]4CO[C@H]5OCC[C@H]54)CC3)nc12` [Compound I-65, (3R,3aS,6aR)-hexahydrofuro[2,3-b]furan-3-yl 4-(3-(2-methoxypyridin-3-yl)pyrazolo[1,5-a]pyrimidin-5-yl)piperazine-1-carboxylate] the same measures were “A (A: ≤0.015)” and > 1500 nM.
For `COc1ccccc1-c1cnn2ccc(N3CCN(C(=O)O[C@H]4CO[C@H]5OCC[C@H]54)CC3)nc12` [Compound I-69, (3R,3aS,6aR)-hexahydrofuro[2,3-b]furan-3-yl 4-(3-(2-methoxyphenyl)pyrazolo[1,5-a]pyrimidin-5-yl)piperazine-1-carboxylate], the “AAK1:GAK pSENs Selectivity” value in experiment [1] is on record as “A (A: ≤0.015)”. The 50% inhibitory concentration (IC50) in experiment [2] is > 1500 nM.
Consider `[2H]C1([2H])N(C(=O)O[C@@H]2CNC(=O)C2)C([2H])([2H])C([2H])([2H])N(c2ccn3ncc(-c4cccnc4OC4CC4)c3n2)C1([2H])[2H]` [Compound I-72, [(3S)-5-oxopyrrolidin-3-yl]4-[3-[2-(cyclopropoxy)-3-pyridyl]pyrazolo[1,5-a]pyrimidin-5-yl]-2,2,3,3,5,5,6,6-octadeuterio-piperazine-1-carboxylate], for which the “AAK1:GAK pSENs Selectivity” value in experiment [1] is “A (A: ≤0.015)”. In experiment [2], the concentration for half-maximal inhibition (IC50) was > 1500 nM.
